Measurements reported in patent US10202360B2 (CELGENE QUANTICEL RESEARCH, INC., priority 2016, dated 2019).

Target: CREBBP (Homo sapiens (Human), UniProt Q92793)
Assay: In vitro enzyme inhibition assay - CREBBP inhibition (AlphaScreen, biotinylated H4-tetraacetyl peptide)
Format: binding
Conditions: Table 28; AlphaScreen, H4-tetraacetyl peptide
Procedure: Determination of the IC50 for the CREBBP inhibitors disclosed herein was performed as follows: CREBBP was cloned and expressed in E. Coli as His-tag protein and purified by Nickel affinity and gel-filtration chromatography. […] CREBBP binding and inhibition was assessed by monitoring the interaction of biotinylated H4-tetraacetyl peptide (AnaSpec, H4K5/8/12/16(Ac), biotin-labeled) with the target using the AlphaScreen technology (Perkin Elmer). In a 384-well ProxiPlate CREBBP (50 nM final) was combined with peptide (20 nM final) in 50 mM HEPES (pH 7.3), 10 mM NaCl, 0.25 mM TCEP, 0.1% (w/v) BSA, and 0.005% (w/v) Brij-35 either in the presence of DMSO (final 0.4% DMSO) or compound dilution series in DMSO. After 20-minute incubation at room temperature, Alpha streptavidin donor beads and Nickel Chelate acceptor beads were added to a final concentration of 5 μg/mL. After two hours of equilibration, plates were read on an Envision instrument and the IC50 was calculated using a four parameter non-linear curve fit.
The ability of the compounds disclosed herein to inhibit CBP activity was quantified and the respective IC50 value was determined.

Chain of CREBBP (Q92793 1081-1197): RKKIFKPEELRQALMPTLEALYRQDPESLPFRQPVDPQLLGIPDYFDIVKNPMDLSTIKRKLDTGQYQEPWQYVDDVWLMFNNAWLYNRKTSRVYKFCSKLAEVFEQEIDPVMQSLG

`COCCS(=O)(=O)Nc1cc(-c2cc(C)c(=O)n(C)c2)nc(Oc2c(C)cccc2C)n1` [Example 78, N-(6-(1,5-dimethyl-6-oxo-1,6-dihydropyridin-3-yl)-2-(2,6-dimethylphenoxy)pyrimidin-4-yl)-2-methoxyethane-1-sulfonamide] showed an IC50 of under 500 nM.

Work on `Cn1cc(-c2cc3nc(n2)Oc2cccc(c2)OCCCCCS(=O)(=O)N3)ccc1=O` [Example 357, 5-(10,10-dioxido-2,4-dioxa-10-thia-11-aza-1(2,4)-pyrimidina-3(1,3)-benzenacycloundecaphane-1^6-yl)-1-methylpyridin-2(1H)-one] yielded an IC50 of under 500 nM.

Compound `CCCCS(=O)(=O)Nc1cc(-c2cc(F)c(=O)n(C)c2)nc(Oc2c(C)cccc2C)n1` [Example 86, N-(2-(2,6-dimethylphenoxy)-6-(5-fluoro-1-methyl-6-oxo-1,6-dihydropyridin-3-yl)pyrimidin-4-yl)butane-1-sulfonamide] has an IC50 of under 500 nM.

`CCCS(=O)(=O)Nc1cc(Oc2c(C)cc(Cl)cc2Cl)nc(-c2cc(C)c(=O)n(C)c2)n1` [Example 60, Propane-1-sulfonic acid [6-(2,4-dichloro-6-methyl-phenoxy)-2-(1,5-dimethyl-6-oxo-1,6-dihydro-pyridin-3-yl)-pyrimidin-4-yl]-amide] gave an IC50 of under 500 nM.

In the case of `Cn1cc(-c2cc(Nc3ccccc3)nc(Oc3ccc(F)cc3F)n2)ccc1=O` [Example 276, 5-(2-(2,4-difluorophenoxy)-6-(phenylamino)pyrimidin-4-yl)-1-methylpyridin-2(1H)-one], the IC50 is reported as under 500 nM.

In the case of `Cc1cc(-c2cc(NS(=O)(=O)C(C)C)nc(Oc3ccc(F)cc3F)n2)cn(C(C)C)c1=O` [Example 47, Propane-2-sulfonic acid [2-(2,4-difluoro-phenoxy)-6-(1-isopropyl-5-methyl-6-oxo-1,6-dihydro-pyridin-3-yl)-pyrimidin-4-yl]-amide], the IC50 is reported as 500 to 5000 nM.

For `CCCS(=O)(=O)Nc1cc(-c2cc(C)c(=O)n(C)c2)nc(Oc2c(F)cccc2Cl)n1` [Example 141, Propane-1-sulfonic acid [2-(2-chloro-6-fluoro-phenoxy)-6-(1,5-dimethyl-6-oxo-1,6-dihydro-pyridin-3-yl)-pyrimidin-4-yl]-amide], the IC50 was under 500 nM.

Work on `Cc1cccc(F)c1Oc1nc(NS(=O)(=O)CCCF)cc(-c2ccc(=O)n(C)c2)n1` [Example 136, 3-Fluoro-propane-1-sulfonic acid [2-(2-fluoro-6-methyl-phenoxy)-6-(1-methyl-6-oxo-1,6-dihydro-pyridin-3-yl)-pyrimidin-4-yl]-amide] yielded an IC50 of under 500 nM.

`Cc1cc(-c2cc(NCCc3ccccc3)nc(Oc3ccc(F)cc3F)n2)cn(C)c1=O` [Example 271, 5-(2-(2,4-difluorophenoxy)-6-(phenethylamino)pyrimidin-4-yl)-1,3-dimethylpyridin-2(1H)-one] was tested, and the IC50 was under 500 nM.

`CCCCS(=O)(=O)Nc1cc(-c2ccc(=O)n(C)c2)nc(Oc2c(C)ccc(F)c2F)n1` [Example 347, N-(2-(2,3-difluoro-6-methylphenoxy)-6-(1-methyl-6-oxo-1,6-dihydropyridin-3-yl)pyrimidin-4-yl)butane-1-sulfonamide] showed an IC50 of under 500 nM.

For `CCS(=O)(=O)Nc1nc(Oc2c(C)cccc2C)nc(-c2cc(C)c(=O)n(C)c2)c1C` [Example 160, Ethanesulfonic acid [6-(1,5-dimethyl-6-oxo-1,6-dihydro-pyridin-3-yl)-2-(2,6-dimethyl-phenoxy)-5-methyl-pyrimidin-4-yl]-amide], the IC50 was under 500 nM.

With `CCCCS(=O)(=O)Nc1cc(-c2cc(C)c(=O)n(C)c2)nc(Oc2cc(Cl)ccc2Cl)n1` [Example 13, Butane-1-sulfonic acid [2-(2,5-dichloro-phenoxy)-6-(1,5-dimethyl-6-oxo-1,6-dihydro-pyridin-3-yl)-pyrimidin-4-yl]-amide] the IC50 was under 500 nM.

`CCCS(=O)(=O)Nc1cc(-c2cc(C)c(=O)n(C)c2)nc(Oc2c(C)cccc2C#N)n1` [Example 23, Propane-1-sulfonic acid [2-(2-cyano-6-methyl-phenoxy)-6-(1,5-dimethyl-6-oxo-1,6-dihydro-pyridin-3-yl)-pyrimidin-4-yl]-amide] was tested, and the IC50 was under 500 nM.

In the case of `Cc1ccc(F)c(Oc2nc(NS(=O)(=O)CCC(C)C)cc(-c3ccc(=O)n(C)c3)n2)c1Cl` [Example 265, 3-Methyl-butane-1-sulfonic acid [2-(2-chloro-6-fluoro-3-methyl-phenoxy)-6-(1-methyl-6-oxo-1,6-dihydro-pyridin-3-yl)-pyrimidin-4-yl]-amide], the IC50 is reported as under 500 nM.

Work on `CCC[C@H](C)Nc1cc(-c2ccc(=O)n(C)c2)nc(Oc2c(C)cccc2Cl)n1` [Example 314, (S)-5-[2-(2-Chloro-6-methyl-phenoxy)-6-(1-methyl-butylamino)-pyrimidin-4-yl]-1-methyl-1H-pyridin-2-one] yielded an IC50 of under 500 nM.

`CCC(F)(F)S(=O)(=O)Nc1cc(-c2cc(C)c(=O)n(C)c2)nc(Oc2c(C)cccc2F)n1` [Example 167, 1,1-Difluoro-propane-1-sulfonic acid [6-(1,5-dimethyl-6-oxo-1,6-dihydro-pyridin-3-yl)-2-(2-fluoro-6-methyl-phenoxy)-pyrimidin-4-yl]-amide] was tested, and the IC50 was under 500 nM.

In the case of `Cc1cccc(C(C)Nc2cc(-c3ccc(=O)n(C)c3)nc(Oc3c(C)cccc3F)n2)n1` (stereo not drawn) [Example 288, 5-(2-(2-fluoro-6-methylphenoxy)-6-((1-(6-methylpyridin-2-yl)ethyl)amino)pyrimidin-4-yl)-1-methylpyridin-2(1H)-one], the IC50 is reported as under 500 nM.

Compound `Cc1cccc(F)c1Oc1nc(N[C@H]2CCCc3ccccc32)cc(-c2ccc(=O)n(C)c2)n1` [Example 311, (S)-5-[2-(2-Fluoro-6-methyl-phenoxy)-6-(1,2,3,4-tetrahydro-naphthalen-1-ylamino)-pyrimidin-4-yl]-1-methyl-1H-pyridin-2-one] has an IC50 of under 500 nM.

With `Cc1cccc(F)c1Oc1nc(NCc2cccnc2)cc(-c2ccc(=O)n(C)c2)n1` [Example 303, 5-{2-(2-Fluoro-6-methyl-phenoxy)-6-[(pyridin-3-ylmethyl)-amino]-pyrimidin-4-yl}-1-methyl-1H-pyridin-2-one] the IC50 was under 500 nM.

`Cc1cc(-c2cc(NS(=O)(=O)C(C)C)nc(Oc3ccc(F)cc3F)n2)cn(C)c1=O` [Example 62, N-(2-(2,4-difluorophenoxy)-6-(1,5-dimethyl-6-oxo-1,6-dihydropyridin-3-yl)pyrimidin-4-yl)propane-2-sulfonamide] was tested, and the IC50 was under 500 nM.

Compound `CCCS(=O)(=O)Nc1cc(-c2ccc(=O)n(C)c2)nc(Oc2c(C)cc(Cl)cc2Cl)n1` [Example 31, Propane-1-sulfonic acid [2-(2,4-dichloro-6-methyl-phenoxy)-6-(1-methyl-6-oxo-1,6-dihydro-pyridin-3-yl)-pyrimidin-4-yl]-amide] has an IC50 of under 500 nM.

With `Cc1cc(-c2cc(NS(=O)(=O)C(C)C)nc(Oc3cccc4c3ccn4C)n2)cn(C)c1=O` [Example 76, N-(6-(1,5-dimethyl-6-oxo-1,6-dihydropyridin-3-yl)-2-((1-methyl-1H-indol-4-yl)oxy)pyrimidin-4-yl)propane-2-sulfonamide] the IC50 was under 500 nM.

Compound `Cc1cccc(Cl)c1Oc1nc(NC2CCCC2)cc(-c2ccc(=O)n(C)c2)n1` [Example 284, 5-(2-(2-chloro-6-methylphenoxy)-6-(cyclopentylamino)pyrimidin-4-yl)-1-methylpyridin-2(1H)-one] has an IC50 of under 500 nM.

`CCCCS(=O)(=O)Nc1cc(-c2ccc(=O)n(C)c2)nc(OC2CCCCC2)n1` [Example 244, Butane-1-sulfonic acid [2-cyclohexyloxy-6-(1-methyl-6-oxo-1,6-dihydro-pyridin-3-yl)-pyrimidin-4-yl]-amide] gave an IC50 of under 500 nM.
